{
  "source": "patent US8748407B2",
  "about": "(The Research Foundation for the State University of New York, priority 2010, dated 2014)",
  "format_in_all_cases": "cell-based",
  "key": {"[1]": {"target": "T1, GluA4 (Rattus norvegicus, UniProt P19493)", "T1 construct": "expressed in transfected cells; host or cells: HEK-293S", "T1 sequence (P19493 21-902)": "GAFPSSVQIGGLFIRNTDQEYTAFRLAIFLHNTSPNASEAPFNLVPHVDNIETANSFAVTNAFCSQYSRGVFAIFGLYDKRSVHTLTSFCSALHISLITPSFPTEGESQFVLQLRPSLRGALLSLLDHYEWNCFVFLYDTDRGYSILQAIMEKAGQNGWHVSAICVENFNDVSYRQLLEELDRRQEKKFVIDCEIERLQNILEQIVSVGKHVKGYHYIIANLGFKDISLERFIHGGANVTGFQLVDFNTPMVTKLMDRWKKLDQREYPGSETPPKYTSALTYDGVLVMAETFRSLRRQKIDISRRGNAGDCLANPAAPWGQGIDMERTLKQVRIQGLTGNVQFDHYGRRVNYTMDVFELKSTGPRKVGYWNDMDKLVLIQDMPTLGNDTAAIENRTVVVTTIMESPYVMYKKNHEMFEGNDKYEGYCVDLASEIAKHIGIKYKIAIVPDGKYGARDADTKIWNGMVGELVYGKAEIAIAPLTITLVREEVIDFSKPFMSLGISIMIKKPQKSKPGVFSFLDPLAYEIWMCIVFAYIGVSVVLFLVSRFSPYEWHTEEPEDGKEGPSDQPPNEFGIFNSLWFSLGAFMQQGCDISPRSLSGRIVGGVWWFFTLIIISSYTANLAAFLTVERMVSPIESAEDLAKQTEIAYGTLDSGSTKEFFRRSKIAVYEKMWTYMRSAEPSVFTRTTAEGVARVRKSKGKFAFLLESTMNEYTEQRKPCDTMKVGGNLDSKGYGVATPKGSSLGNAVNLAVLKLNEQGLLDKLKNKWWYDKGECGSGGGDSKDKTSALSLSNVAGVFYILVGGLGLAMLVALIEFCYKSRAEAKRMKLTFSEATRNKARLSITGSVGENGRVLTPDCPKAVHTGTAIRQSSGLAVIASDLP", "assay": "Whole-cell current recording, GluA4", "description": "(§1) The original cDNAs in pBlueScript encoding rat GluA1, 2 and 3 AMPA receptors and GluK2 kainate receptor were kindly provided by Steve Heinemann. The GluA4 DNA plasmid was kindly provided by Peter Seeburg. The GluK1 plasmid was kindly provided by Geoffrey Swanson. The cDNAs of all three NMDA receptor subunits were gifts from John Woodward. All DNA plasmids were propagated using Escherichia coli host (DH5α) and purified using QIAGEN DNA purification kits.\n(§2) All of the receptors were transiently expressed in HEK-293S cell. HEK-293S cells were maintained in Dulbecco's modified Eagle's medium (DMEM) supplemented with 10% fetal bovine serum and 1% penicillin in a 37° C., 5% CO2, humidified incubator. Receptors were transiently transfected by using calcium phosphate or lipofectamine 2000 (Invitrogen). The DNA plasmids encoding green fluorescent protein (GFP) and T-antigen (TAg) were cotransfected in HEK-293 S cells. GFP was used as a transfection marker for cell recording, and TAg was cotransfected to potentiate the receptor expression at the single-cell level^6. Transfected cells were allowed to grow for 48 hour before they were used for recording.\nThe procedure for whole-cell current recording to assay the inhibitory property of an RNA aptamer is known to those of skill in the art and has been previously described^7. […] The extracellular buffer composition is described above (see “Receptor Preparation”). For recording of the NMDA channels, the intracellualr solution contained (in mM) 140 CsCl, 1 MgCl2, 0.1 EGTA, and 10 HEPES (pH 7.2 adjusted by […]), while the extracellular solution contained (in mM) 135 NaCl, 5.4 KCl, 1.8 CaCl2, 10 glucose and 5 HEPES (pH 7.2 adjusted by NaOH). In the extracellular buffer, 2 μM of glycine was added (glycine was the co-agonist of NMDA receptor)^2. All reagents including aptamer were dissolved in the corresponding extracellular buffer and used. […] The whole-cell current was recorded using an Axopatch-200B amplifier at a cutoff frequency of 2-20 kHz by a built-in, eight-pole Bessel filter and digitized at 5-50 kHz sampling frequency using a Digidata 1322A from Axon Instruments (Molecular Devices, Sunnyvale, Calif.). The pClamp 8 software (Molecular Devices) was used for data acquisition. All whole-cell recordings were at −60 mV and 22° C."}, "[2]": {"tested_on": "GluK1", "assay": "Whole-cell current recording, kainate receptor GluK1", "description": "as §1\nas §2, with “GFP was used as a transfection marker for cell recording, and TAg was cotransfected to potentiate the receptor expression at the single-cell level^6. Transfected cells were allowed to grow for 48 hour before they were used for recording.” left out\n(§3) The procedure for whole-cell current recording to assay the inhibitory property of an RNA aptamer is known to those of skill in the art and has been previously described^7. […] The whole-cell current was recorded using an Axopatch-200B amplifier at a cutoff frequency of 2-20 kHz by a built-in, eight-pole Bessel filter and digitized at 5-50 kHz sampling frequency using a Digidata 1322A from Axon Instruments (Molecular Devices, Sunnyvale, Calif.). […]"}, "[3]": {"target": "T2, GluK2 (Rattus norvegicus, UniProt P42260)", "T2 construct": "expressed in transfected cells; host or cells: HEK-293S", "T2 sequence (P42260 32-908)": "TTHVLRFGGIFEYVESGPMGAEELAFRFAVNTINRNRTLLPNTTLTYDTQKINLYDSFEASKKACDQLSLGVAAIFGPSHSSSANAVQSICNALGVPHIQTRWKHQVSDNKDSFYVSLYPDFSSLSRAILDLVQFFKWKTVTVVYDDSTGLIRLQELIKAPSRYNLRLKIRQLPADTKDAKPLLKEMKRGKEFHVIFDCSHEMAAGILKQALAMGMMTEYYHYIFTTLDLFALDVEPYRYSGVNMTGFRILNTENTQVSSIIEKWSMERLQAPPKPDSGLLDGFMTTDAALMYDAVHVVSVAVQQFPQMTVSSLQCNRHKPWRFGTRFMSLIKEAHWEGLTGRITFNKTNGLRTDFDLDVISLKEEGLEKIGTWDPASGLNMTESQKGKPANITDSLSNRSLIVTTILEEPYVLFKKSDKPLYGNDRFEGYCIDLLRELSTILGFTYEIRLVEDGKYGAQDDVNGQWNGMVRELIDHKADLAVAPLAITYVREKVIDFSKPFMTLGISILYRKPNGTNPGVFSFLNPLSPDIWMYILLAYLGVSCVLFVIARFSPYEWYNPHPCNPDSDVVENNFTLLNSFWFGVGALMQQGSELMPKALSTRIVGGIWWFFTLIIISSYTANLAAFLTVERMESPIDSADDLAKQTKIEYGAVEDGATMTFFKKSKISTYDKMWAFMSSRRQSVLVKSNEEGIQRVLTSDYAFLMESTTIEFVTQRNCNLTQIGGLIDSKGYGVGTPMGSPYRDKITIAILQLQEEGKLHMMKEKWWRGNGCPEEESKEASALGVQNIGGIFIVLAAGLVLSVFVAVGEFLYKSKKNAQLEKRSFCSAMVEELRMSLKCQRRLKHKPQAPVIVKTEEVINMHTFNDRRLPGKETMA", "assay": "Whole-cell current recording, kainate receptor GluK2", "description": "as §1\nas §2, with “GFP was used as a transfection marker for cell recording, and TAg was cotransfected to potentiate the receptor expression at the single-cell level^6. Transfected cells were allowed to grow for 48 hour before they were used for recording.” left out\nas §3"}, "[4]": {"target": "T3, GluN1a/2A (Rattus norvegicus, UniProt P35439+Q00959)", "T3 construct": "expressed in transfected cells; host or cells: HEK-293S", "T3 sequence (Q00959 23-1464, other chains not shown)": "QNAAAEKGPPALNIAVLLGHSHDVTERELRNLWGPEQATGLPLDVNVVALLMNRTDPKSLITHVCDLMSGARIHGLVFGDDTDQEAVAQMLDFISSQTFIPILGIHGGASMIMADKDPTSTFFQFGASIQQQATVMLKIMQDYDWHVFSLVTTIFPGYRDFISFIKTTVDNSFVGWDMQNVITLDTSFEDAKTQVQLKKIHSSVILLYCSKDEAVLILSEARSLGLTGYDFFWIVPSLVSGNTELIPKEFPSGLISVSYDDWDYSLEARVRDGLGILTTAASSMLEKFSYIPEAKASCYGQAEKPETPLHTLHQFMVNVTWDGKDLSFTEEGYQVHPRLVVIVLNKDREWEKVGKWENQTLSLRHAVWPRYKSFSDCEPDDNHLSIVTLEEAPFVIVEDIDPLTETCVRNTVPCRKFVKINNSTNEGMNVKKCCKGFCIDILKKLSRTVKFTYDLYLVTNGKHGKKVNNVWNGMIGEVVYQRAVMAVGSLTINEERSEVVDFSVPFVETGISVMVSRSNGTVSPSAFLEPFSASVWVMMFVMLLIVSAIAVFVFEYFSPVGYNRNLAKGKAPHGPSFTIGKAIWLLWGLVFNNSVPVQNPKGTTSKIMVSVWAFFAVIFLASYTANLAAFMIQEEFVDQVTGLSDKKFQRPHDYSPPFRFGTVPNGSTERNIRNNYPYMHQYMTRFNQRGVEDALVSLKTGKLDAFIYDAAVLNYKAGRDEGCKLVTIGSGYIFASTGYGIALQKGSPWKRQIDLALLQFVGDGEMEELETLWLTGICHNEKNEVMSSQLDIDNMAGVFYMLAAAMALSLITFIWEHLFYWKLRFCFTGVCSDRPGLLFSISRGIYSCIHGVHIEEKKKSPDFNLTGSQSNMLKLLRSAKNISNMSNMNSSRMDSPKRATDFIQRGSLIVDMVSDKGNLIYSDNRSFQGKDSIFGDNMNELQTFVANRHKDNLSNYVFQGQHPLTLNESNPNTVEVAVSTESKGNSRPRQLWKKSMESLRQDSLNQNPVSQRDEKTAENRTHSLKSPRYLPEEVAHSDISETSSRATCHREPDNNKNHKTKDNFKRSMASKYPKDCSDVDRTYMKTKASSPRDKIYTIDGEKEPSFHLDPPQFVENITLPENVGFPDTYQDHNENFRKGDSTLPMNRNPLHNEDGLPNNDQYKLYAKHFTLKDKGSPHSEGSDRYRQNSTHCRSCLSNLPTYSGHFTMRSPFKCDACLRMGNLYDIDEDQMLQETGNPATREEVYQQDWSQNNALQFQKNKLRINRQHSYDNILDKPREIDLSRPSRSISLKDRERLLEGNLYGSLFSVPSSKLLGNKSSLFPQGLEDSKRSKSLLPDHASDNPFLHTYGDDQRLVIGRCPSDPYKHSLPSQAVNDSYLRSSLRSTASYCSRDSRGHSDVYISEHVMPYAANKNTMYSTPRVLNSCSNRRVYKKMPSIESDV", "assay": "Whole-cell current recording, NMDA receptor GluN1a/2A", "description": "as §1\nas §2, with “GFP was used as a transfection marker for cell recording, and TAg was cotransfected to potentiate the receptor expression at the single-cell level^6. Transfected cells were allowed to grow for 48 hour before they were used for recording.” left out\nas §3"}, "[5]": {"target": "T4, GluA2Qflip (Rattus norvegicus, UniProt P19491)", "T4 construct": "expressed in transfected cells; host or cells: HEK-293S", "T4 sequence (P19491 22-883 isoform P19491-2)": "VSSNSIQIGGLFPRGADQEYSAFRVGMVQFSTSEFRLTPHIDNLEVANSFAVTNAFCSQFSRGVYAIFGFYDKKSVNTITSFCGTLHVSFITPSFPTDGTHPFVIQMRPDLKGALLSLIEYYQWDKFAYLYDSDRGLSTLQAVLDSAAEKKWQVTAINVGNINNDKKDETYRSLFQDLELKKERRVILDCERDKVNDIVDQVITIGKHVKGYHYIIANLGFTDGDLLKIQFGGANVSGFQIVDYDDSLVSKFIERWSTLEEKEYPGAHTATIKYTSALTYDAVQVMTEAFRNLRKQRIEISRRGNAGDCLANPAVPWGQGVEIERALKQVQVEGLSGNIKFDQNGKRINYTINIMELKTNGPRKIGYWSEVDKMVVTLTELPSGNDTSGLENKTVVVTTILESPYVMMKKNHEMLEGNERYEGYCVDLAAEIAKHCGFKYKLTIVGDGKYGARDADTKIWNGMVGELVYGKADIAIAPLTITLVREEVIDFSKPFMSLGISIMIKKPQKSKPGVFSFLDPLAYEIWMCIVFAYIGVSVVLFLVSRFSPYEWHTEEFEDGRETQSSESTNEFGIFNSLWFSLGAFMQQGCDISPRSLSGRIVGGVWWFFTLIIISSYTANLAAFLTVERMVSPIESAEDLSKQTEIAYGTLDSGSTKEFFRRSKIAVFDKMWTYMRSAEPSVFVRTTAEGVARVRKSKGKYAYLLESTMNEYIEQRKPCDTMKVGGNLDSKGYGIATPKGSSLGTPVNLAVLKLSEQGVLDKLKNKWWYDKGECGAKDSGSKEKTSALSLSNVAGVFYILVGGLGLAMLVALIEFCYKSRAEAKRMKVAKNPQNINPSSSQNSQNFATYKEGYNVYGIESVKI", "assay": "Laser-pulse photolysis of caged glutamate, channel-opening kinetics", "description": "The use of the laser-pulse photolysis technique to measure the channel-opening kinetics has been described^7. […] In the laser-pulse photolysis measurement of channel opening, a single laser pulse at 355 nm with a pulse length of 8 ns was generated from a pulsed Q-switched Nd:YAG laser (Continuum, Santa Clara, Calif.). The pulse energy varied in the range of 200-800 μJ, measured at the end of an optical fiber (300 μm core diameter) into which the laser was coupled. […] The current amplitudes obtained from this calibration were compared with the amplitude from the laser measurement with reference to the dose-response relationship. These measurements also allowed us to monitor any damage to the receptors and/or the cell for successive laser experiments with the same cell^7.\nTo deliver AG56 to a HEK-293 cell, a “Ψ”-shaped flow device was used. […] In all experiments reported in this study, a 6-second preincubation flow protocol was used for full aptamer preincubation. […] The corrected current amplitude was used for data analysis.\nThe use of this technique allows the investigation of the effect of AG56 on the channel-opening kinetic mechanism of the GluA2Qflip receptors. Before describing how the mechanism of inhibition is elucidated, the kinetic characterization of channel-opening rate process is presented.\nA represents the active form of the receptor, L, the ligand, ALn the closed-channel forms, and ALn the open-channel form, K1 the intrinsic dissociation constant of activating ligand and Φ the channel opening equilibrium constant (Φ^−1=kcl/kop). Based on this mechanism and the assumption that the ligand-binding rate was fast as compared to the channel opening, the observed rate constant of channel opening or kobs can be formulated as in equ. 2.\nIn equ. 2, kcl is the channel-closing rate constant or the lifetime of the channel, τ (τ=1/kcl), kop is the channel-opening rate constant, and n the number of the ligand molecules to bind to the receptor complex to open the channel (i.e., n=1-4). Imax is the maximum current amplitude, and It is the current amplitude at time t.\nThe mechanism of inhibition was characterized by studying the effect of an inhibitor such as AG56 on the channel-opening rate process^13,14. In general there are three ways in which an ion channel receptor can be inhibited. For instance, an inhibitor binds only to the open-channel state or conformation and then inhibits it (Mechanism 1, uncompetitive mechanism of inhibition or open-channel blockade). Alternatively, an inhibitor binds to both the closed- and open-channel states through a regulatory site (Mechanism 2, noncompetitive mechanism). The observed rate constant, kobs in the presence and absence of an inhibitor can be measured using equ. 3. […] 4 for mechanism 1, and equ. 5 for mechanism 2.\nIn deriving these equations, one binding site for inhibitor per receptor molecule is assumed. […] 4 or 5 to the overall rate, kobs, is negligible. Under this condition, the effect of the inhibitor on the kcl can be measured^13. Specifically, for both Mechanisms 1 and 2, the effects of the inhibitor on kcl are the same, and can be obtained by equ. 6, which can be derived from either equ. 4 or 5. From equ. 6, the equilibrium dissociation constant of the inhibitor from the open-channel state, KI, can be determined.\nFor Mechanism 2 or a noncompetitive mechanism of inhibition, the inhibitor will affect kop additionally (equ. 8), if KI<I, I being the molar concentration used to measure the KI value. Consequently the dissociation constant of the inhibitor for the closed-channel conformation can be further determined for Mechanism 2. It should be emphasized that the presence of an inhibitory effect of a noncompetitive inhibitor is due to the fact that the inhibitor must first bind to the closed-channel conformation, as illustrated in Mechanism 2, shown above. […]"}, "[6]": {"conditions": "100 μM photolytically released glutamate"}},
  "data": [
    {"substance": "AG56: 56-nucleotide truncated version of AG1407, RNA aptamer (GGGAGAUUGUGAAGCGUAGGCUCGAGUUUGUCCCGCGAGCCAAAGAUUCCAGACCC; RNA, backbone not given here)", "values": [
      {"measurement": "A/A(I)", "setting": "[1]; 0.5 μM AG56, 3 mM glutamate, open-channel GluA4", "value": "not significantly larger than 1.0"},
      {"measurement": "A/A(I) ratio", "setting": "[1]; 1 μM AG56, 3 mM glutamate, open-channel GluA4", "value": 1.2},
      {"measurement": "inhibition of the closed-channel conformation", "setting": "[1]; GluA4", "value": "no inhibitory effect"},
      {"measurement": "inhibition of the open-channel conformation", "setting": "[1]; GluA4", "value": "weak"},
      {"measurement": "effect on kainate receptor channel", "setting": "[2]", "value": "did not affect"},
      {"measurement": "effect on kainate receptor channel", "setting": "[3]", "value": "did not affect"},
      {"measurement": "effect on NMDA receptor channel", "setting": "[4]", "value": "did not affect"},
      {"measurement": "effect on channel-closing rate (kcl)", "setting": "[5]; [6]", "value": "inhibited the rate of channel closing"},
      {"measurement": "effect on current amplitude", "setting": "[5]; [6]", "value": "did not affect the current amplitude"},
      {"measurement": "kobs value, which reflected kcl", "setting": "[5]; 100 μM photolytically released glutamate, +0.75 μM AG56 (control 2,200)", "value": "1,600 s^−1"},
      {"measurement": "kobs value, which reflected kop", "setting": "[5]; 340 μM photolytically released glutamate, 0.75 μM AG56 (absence 5,128)", "value": "4,405 s^−1"},
      {"measurement": "effect on current amplitude", "setting": "[5]; higher glutamate concentration", "value": "reduced the current amplitude"},
      {"measurement": "effect on channel-opening rate constant (kop)", "setting": "[5]; increased glutamate concentration", "value": "did not inhibit kop"}
    ]}
  ]
}
